Earlier results on 1 molecule are cited in US20160045463A1, “USE OF METALLOPROTEASE INHIBITORS IN THE TREATMENT OF POLYCYSTIC LIVER DISEASES” (UNIVERSIDAD DE SALAMANCA, priority 2012, published 2016).

The test system of the data set is polycystic livers. The following applies: ADPKD patients subjected to kidney transplant with polycystic livers; cited from earlier work.

For the molecule `C=CC[C@@H]1/C=C(\C)C[C@H](C)C[C@H](OC)[C@H]2O[C@@](O)(C(=O)C(=O)N3CCCC[C@H]3C(=O)O[C@H](/C(C)=C/[C@@H]3CC[C@@H](O)[C@H](OC)C3)[C@H](C)[C@@H](O)CC1=O)[C@H](C)C[C@@H]2OC` [tacrolimus], the “volume of the liver” value is listed as “increased the volume of the liver”.
